Data taken from article PMC6150693 (Journal of the American Chemical Society, 2017).

Biological target: T1, SBD2 (Lactococcus lactis, UniProt Q9CES5)
T1 sequence (Q9CES5 253-484 limits assumed): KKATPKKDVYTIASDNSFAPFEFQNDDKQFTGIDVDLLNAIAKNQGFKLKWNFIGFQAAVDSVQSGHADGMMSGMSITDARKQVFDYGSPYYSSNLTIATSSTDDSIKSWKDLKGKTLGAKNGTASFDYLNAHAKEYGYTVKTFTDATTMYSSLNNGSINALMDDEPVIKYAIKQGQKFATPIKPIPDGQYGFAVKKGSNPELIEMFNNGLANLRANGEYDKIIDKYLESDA
Assay: single-molecule ClyA nanopore current, relative closed population
Format: binding

## NC(=O)CC[C@H](N)C(=O)O [glutamine]
  Kd: 0.83 ± 0.1 µM
